Target: Cyclin-A2/Cyclin-dependent kinase 2 (Homo sapiens, UniProt P24941)
Test: CDK Inhibition Assay
Details: pH 7.5; 22 °C
Procedure: In vitro kinase assay using purified CDK2/Cyclin A was incubated at room temperature with substrate, and test compounds in the presence of 100 uM ATP/ [gamma-33P] ATP. Assays were performed in 96-well polypropylene plates. 33P incorporation into substrate was measured using a scintillation counter.

CC(C)c1cnn2c(Nc3ccc(S(C)(=O)=O)cc3)cc(Cl)nc12 [5-chloro-N-(4-methanesulfonylphenyl)-3-(propan-2-yl)pyrazolo[1,5-a]pyrimidin-7-amine] showed an IC50 of 230 nM.

— BindingDB's records for doi:10.1016/j.bmcl.2004.12.073 (Vernalis (R&D), 2005)
